Assay results taken from patent publication US10092648B2, “Selective glucagon-like-peptide-2 (GLP-2) analogues” (Zealand Pharma A/S, priority 2006, dated 2018).

What was measured:
[1] = tested on: male C57BL mice; assay: In vivo stimulation of intestinal growth, 200 nmol/kg (Example 11); settings: for Sensitivity index Si/Colon: relative to 1559
Procedure: The ability of further compounds to selectively stimulate small intestinal mass, relative to colon mass was determined in male C57BL mice. A similar protocol was used to that described above in Example 10 except that 200 nmol/kg of each compound was administered per day. Thus, individual groups (n=6-10) of mice were given 200 nmol/kg of each compound, s.c, once daily for three consecutive days. Other groups of animals were given either an equimolar dose of [[…]]GLP-2 (reference compound) or vehicle (phosphate buffered saline, pH 7.4; negative controls) in the same dosing regimen. Twenty-four hours after the last dose of compound the mice were sacrificed and the stomach, small intestine and the colon emptied and weighed.

[2] = tested on: male C57BL mice; assay: In vivo stimulation of stomach growth, 200 nmol/kg (Example 12)
Procedure: The effects of the test compounds according to the invention were determined based on the ability of the peptides to selectively increase stomach mass, relative to vehicle control. The ability of the present compounds (ZP2395, ZP2396, ZP2400, ZP2412, ZP2394 and ZP2401) to selectively stimulate stomach mass, relative to colon mass was determined in male C57BL mice. Individual groups (n=6-10) of mice were given 200 nmol/kg of each compound, s.c, once daily for three consecutive days. For comparison purposes other groups of animals were given either an equimolar dose of [[…]]GLP-2 or vehicle (phosphate buffered saline, pH 7.4) in the same dosing regimen. Twenty-four hours after the last dose of compound had been given the mice were sacrificed and the stomach and small intestine (from the pylorus to the ileocaecal junction) emptied and weighed. To correct for slight difference in body weight (BW), the organ mass of the stomach is presented relative to BW. […] To evaluate the differential growth pattern induced by ZP compounds, compared to [[…]]GLP-2, on the stomach, the stomach-colon sensitivity index of compound X was calculated as: (Stomach/Colon)x/Stomach/(Colon)[[…]]GLP-2% Compounds with a stomach/colon sensitivity greater than or equal to 1.05 were considered relatively selective for the stomach.

[3] = 200 nmol/kg s.c. once daily for 3 days
[4] = colon weight relative to body weight, relative to ZP1559
[5] = small intestine weight relative to body weight, relative to ZP1559
[6] = 200 nmol/kg s.c. once daily for 3 days, relative to 1559

Substance: H-HGEGSFSDELATILEALAASDFIAWLIATKITD-NH2 [ZP2417]
- Colon-BW, compared to 1559 in % [1, 3]: 106%
- Preferential stimulation of epithelial growth in the small intestine (summary) [1, 3]: preferentially stimulating epithelial growth in the small intestine
- SI-BW, compared to 1559 in % [1, 3]: 119%
- Selectivity for small intestinal mass relative to colon mass (FIG. 6) [1, 3]: selectively increase small intestinal mass, relative to colon mass
- Sensitivity index Si/Colon [1, 3]: 1.12
- Colon-BW, compared to 1559 in % [1, 4]: 106%
- SI-BW, compared to 1559 in % [1, 5]: 119%
- Sto-BW, compared to 1559 in % [2, 3]: 90%
- Sensitivity index Stomach/Co [2, 6]: 0.85
- Sensitivity index Stomach/Co ([2]; ratio Stomach-BW / Colon-BW): 0.85

Substance: H-HGEGSFSDELSTILESLAASDFISWLISTKITDKKKKKK-NH2 [ZP2380]
- Colon-BW, compared to 1559 in % [1, 3]: 102%
- Preferential stimulation of epithelial growth in the small intestine (summary) [1, 3]: preferentially stimulating epithelial growth in the small intestine
- SI-BW, compared to 1559 in % [1, 3]: 108%
- Selectivity for small intestinal mass relative to colon mass (FIG. 6) [1, 3]: selectively increase small intestinal mass, relative to colon mass
- Sensitivity index Si/Colon [1, 3]: 1.06
- Colon-BW, compared to 1559 in % [1, 4]: 102%
- SI-BW, compared to 1559 in % [1, 5]: 108%
- Sto-BW, compared to 1559 in % [2, 3]: 98%
- Sensitivity index Stomach/Co [2, 6]: 0.96
- Sensitivity index Stomach/Co ([2]; ratio Stomach-BW / Colon-BW): 0.96

Substance: H-HGEGSFSDELETILEELAAEDFIEWLIETKITDKKKKKK-NH2 [ZP2378]
- Colon-BW, compared to 1559 in % [1, 3]: 97%
- Organ selectivity (FIG. 8, unselective compounds) [1, 3]: unselective for the small intestine, colon or stomach
- SI-BW, compared to 1559 in % [1, 3]: 91%
- Sensitivity index Si/Colon [1, 3]: 0.94
- Sto-BW, compared to 1559 in % [2, 3]: 94%
- Sensitivity index Stomach/Co [2, 6]: 0.97

Substance: H-HGEGSFSDELATILESLAASDFISWLISTKITDKKKKKK-NH2 [ZP2386]
- Colon-BW, compared to 1559 in % [1, 3]: 111%
- Organ selectivity (FIG. 8, unselective compounds) [1, 3]: unselective for the small intestine, colon or stomach
- SI-BW, compared to 1559 in % [1, 3]: 113%
- Sensitivity index Si/Colon [1, 3]: 1.02
- Sto-BW, compared to 1559 in % [2, 3]: 95%
- Sensitivity index Stomach/Co [2, 6]: 0.86

Substance: H-HGEGSFSDELATI LEALAASDFIAWLIATKITDKKKKKK-NH2 [ZP2423]
- Colon-BW, compared to 1559 in % [1, 3]: 109%
- Preferential stimulation of epithelial growth in the small intestine (summary) [1, 3]: preferentially stimulating epithelial growth in the small intestine
- SI-BW, compared to 1559 in % [1, 3]: 123%
- Selectivity for small intestinal mass relative to colon mass (FIG. 6) [1, 3]: selectively increase small intestinal mass, relative to colon mass
- Sensitivity index Si/Colon [1, 3]: 1.13
- Colon-BW, compared to 1559 in % [1, 4]: 109%
- SI-BW, compared to 1559 in % [1, 5]: 123%
- Sto-BW, compared to 1559 in % [2, 3]: 94%
- Sensitivity index Stomach/Co [2, 6]: 0.86
- Sensitivity index Stomach/Co ([2]; ratio Stomach-BW / Colon-BW): 0.86

Substance: H-HGEGSFSDELSTILESLAAADFIAWLIATKITDKKKKKK-NH2 [ZP2403]
- Colon-BW, compared to 1559 in % [1, 3]: 109%
- Organ selectivity (FIG. 8, unselective compounds) [1, 3]: unselective for the small intestine, colon or stomach
- SI-BW, compared to 1559 in % [1, 3]: 110%
- Sensitivity index Si/Colon [1, 3]: 1.01
- Sto-BW, compared to 1559 in % [2, 3]: 107%
- Sensitivity index Stomach/Co [2, 6]: 0.98

Substance: H-HGEGSFSDELNTILESLAASDFISWLISTKITDKKKKKK-NH2 [ZP2382]
- Colon-BW, compared to 1559 in % [1, 3]: 106%
- Organ selectivity (FIG. 8, unselective compounds) [1, 3]: unselective for the small intestine, colon or stomach
- SI-BW, compared to 1559 in % [1, 3]: 103%
- Sensitivity index Si/Colon [1, 3]: 0.97
- Sto-BW, compared to 1559 in % [2, 3]: 101%
- Sensitivity index Stomach/Co [2, 6]: 0.95

Substance: H-HGEGSFSDELSTILEALAASDFISWLISTKITDKKKKKK-NH2 [ZP2385]
- Colon-BW, compared to 1559 in % [1, 3]: 95%
- Preferential stimulation of epithelial growth in the small intestine (summary) [1, 3]: preferentially stimulating epithelial growth in the small intestine
- SI-BW, compared to 1559 in % [1, 3]: 110%
- Selectivity for small intestinal mass relative to colon mass (FIG. 6) [1, 3]: selectively increase small intestinal mass, relative to colon mass
- Sensitivity index Si/Colon [1, 3]: 1.16
- Colon-BW, compared to 1559 in % [1, 4]: 95%
- SI-BW, compared to 1559 in % [1, 5]: 110%
- Sto-BW, compared to 1559 in % [2, 3]: 93%
- Sensitivity index Stomach/Co [2, 6]: 0.98
- Sensitivity index Stomach/Co ([2]; ratio Stomach-BW / Colon-BW): 0.98
